Results on one molecule are retold here after ChEMBL document CHEMBL4842390, “Amino-Heterocycle Tetrahydroisoquinoline CXCR4 Antagonists with Improved ADME Profiles via Late-Stage Buchwald Couplings” (ACS Med Chem Lett, 2021).

pIC50: −log10 of the molar value. The source made the active and inactive calls. The calls are words filed in the database; no cut-off is given here.

The nature of data set [1]: Cmax in CD-1 mouse at 30 mg/kg, po or at 3 mg/kg, iv by UPLC-MS/MS analysis. Format: ADME, organism-based. Further details: dose 30 mg/kg. Conditions: in vivo.
Data set [2] is described as follows: Oral bioavailability in CD1 mouse at 30 mg/kg measured after 8 hrs by LC-MS/MS analysis. Particulars: in vivo. It counts as ADME, organism-based.
Data set [3] is described as follows: Metabolic stability in rat liver microsomes assessed as parent compound remaining incubated for 10 mins in presence of NADPH. Conditions: read-out: Stabilty. Format: ADME, Microsome.
For data set [4], the target named is T1, C-X-C chemokine receptor type 1 (Homo sapiens) (UniProt P25024).
T1 sequence (whole entry): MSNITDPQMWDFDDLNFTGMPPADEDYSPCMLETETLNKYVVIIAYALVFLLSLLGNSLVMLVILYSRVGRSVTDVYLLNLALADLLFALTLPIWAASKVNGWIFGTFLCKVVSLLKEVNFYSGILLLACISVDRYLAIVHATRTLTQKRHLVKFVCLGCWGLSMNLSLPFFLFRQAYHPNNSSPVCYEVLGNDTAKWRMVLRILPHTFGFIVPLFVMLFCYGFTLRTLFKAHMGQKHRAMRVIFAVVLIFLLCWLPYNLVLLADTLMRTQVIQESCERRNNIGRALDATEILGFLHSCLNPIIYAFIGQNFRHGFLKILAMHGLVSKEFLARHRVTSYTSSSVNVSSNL
Nature of the data set: Antagonist activity at CXCR1 (unknown origin) assessed as inhibition of ligand-induced calcium flux measured upto 10 uM. It counts as functional. Particulars: dose microM <=10. (In general: A change in cytosolic calcium serves as a functional read-out for many receptors and channels.)

Data set [5] in a line: Half life in CD1 mouse at 30 mg/kg, po or at 3 mg/kg, iv measured after 8 hrs by LC-MS/MS analysis. Format: ADME, organism-based. Particulars: in vivo.
Data set [6] can be described thus: Metabolic stability in human liver microsomes assessed as parent compound remaining incubated for 10 mins in presence of NADPH. Format: ADME, Microsome. Conditions: read-out: Stabilty. On the technique in general: Microsomes from liver hold many membrane-bound enzymes, among them those of drug oxidation.
The target of data set [7] is T2, C-X-C chemokine receptor type 2 (Homo sapiens) (UniProt P25025).
T2 sequence (whole entry): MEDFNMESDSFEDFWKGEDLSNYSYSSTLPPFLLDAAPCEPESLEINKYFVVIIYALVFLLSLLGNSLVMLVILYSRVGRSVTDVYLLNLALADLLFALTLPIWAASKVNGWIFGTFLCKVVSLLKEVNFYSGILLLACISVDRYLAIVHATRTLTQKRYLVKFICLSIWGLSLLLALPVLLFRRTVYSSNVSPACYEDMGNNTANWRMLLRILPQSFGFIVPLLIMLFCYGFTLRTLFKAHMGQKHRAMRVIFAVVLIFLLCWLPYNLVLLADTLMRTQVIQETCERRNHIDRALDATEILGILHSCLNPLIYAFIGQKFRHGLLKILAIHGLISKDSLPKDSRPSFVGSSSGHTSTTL
Nature of the data set: Antagonist activity at CXCR2 (unknown origin) assessed as inhibition of ligand-induced calcium flux measured upto 10 uM. It counts as functional. Conditions: dose microM <=10.

For data set [8], the target named is Cytochrome P450 3A4 (Homo sapiens, UniProt P08684). Nature of the data set: Inhibition of CYP3A4 (unknown origin). It counts as ADME.
Data set [9] deals with T3, C-C chemokine receptor type 4 (Homo sapiens) (UniProt P51679).
T3 sequence (whole entry): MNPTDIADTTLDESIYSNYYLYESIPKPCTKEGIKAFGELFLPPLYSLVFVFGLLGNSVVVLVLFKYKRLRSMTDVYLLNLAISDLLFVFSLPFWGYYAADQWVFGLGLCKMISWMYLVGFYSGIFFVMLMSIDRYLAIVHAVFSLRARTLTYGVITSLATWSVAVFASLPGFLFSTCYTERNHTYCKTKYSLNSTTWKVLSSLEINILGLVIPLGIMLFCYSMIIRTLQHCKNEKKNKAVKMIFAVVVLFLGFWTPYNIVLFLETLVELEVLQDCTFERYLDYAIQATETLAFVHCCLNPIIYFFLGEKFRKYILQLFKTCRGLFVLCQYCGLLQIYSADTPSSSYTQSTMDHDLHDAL
In words: Antagonist activity at CCR4 (unknown origin) assessed as inhibition of ligand-induced calcium flux measured upto 10 uM. Particulars: dose microM <=10. It counts as functional.

For data set [10], the target named is C-X-C chemokine receptor type 4 (Homo sapiens, UniProt P61073). In words: Antagonist activity at CXCR4 receptor in human CCRF-CEM cells assessed as inhibition of SDF-1alpha-induced calcium release preincubated for 25 mins followed by SDF-1alpha addition and monitered for 90 sec. It counts as functional, cell-based.
Data set [11] in a line: Permeability of the compound at pH 7.4 incubated for 4 hrs by PAMPA. Format: ADME. Conditions: read-out: permeability. (In general: The PAMPA barrier holds no transporters, so it reflects passive diffusion.)
The nature of data set [12]: C8h in CD-1 mouse at 30 mg/kg, po or at 3 mg/kg, iv measured up to 8 hrs by UPLC-MS/MS analysis. Particulars: in vivo.
The nature of data set [13]: Metabolic stability in mouse liver microsomes assessed as parent compound remaining incubated for 10 mins in presence of NADPH. It counts as ADME, Microsome. Conditions: read-out: Stabilty.
Data set [14] is described as follows: Volume of distribution in CD-1 mouse at 30 mg/kg, po or at 3 mg/kg, iv by UPLC-MS/MS analysis. It counts as ADME, organism-based. Particulars: in vivo.
Data set [15] addresses C-C chemokine receptor type 5 (Homo sapiens) (UniProt P51681). In words: Antagonist activity at CCR5 (unknown origin) assessed as inhibition of ligand-induced calcium flux measured upto 10 uM. It counts as functional. Conditions: dose microM <=10.
Data set [16] can be described thus: AUC (0 to t) in CD-1 mouse at 30 mg/kg, po or at 3 mg/kg, iv measured after 8 hrs by LC-MS/MS analysis. Format: ADME, organism-based. Also on record: time 8 hrs, dose 30 mg/kg. Particulars: in vivo.
In data set [17] the target is T4, C-X-C chemokine receptor type 3 (Homo sapiens) (UniProt P49682).
T4 sequence (whole entry): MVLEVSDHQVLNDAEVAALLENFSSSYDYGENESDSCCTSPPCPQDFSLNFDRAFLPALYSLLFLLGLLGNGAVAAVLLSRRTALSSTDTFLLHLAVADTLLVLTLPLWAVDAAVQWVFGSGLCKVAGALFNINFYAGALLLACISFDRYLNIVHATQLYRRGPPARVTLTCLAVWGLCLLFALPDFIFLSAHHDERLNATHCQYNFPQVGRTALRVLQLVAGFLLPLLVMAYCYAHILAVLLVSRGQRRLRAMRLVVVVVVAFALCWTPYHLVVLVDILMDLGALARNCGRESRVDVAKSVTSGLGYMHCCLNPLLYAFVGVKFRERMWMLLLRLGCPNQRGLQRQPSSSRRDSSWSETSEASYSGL
Nature of the data set: Antagonist activity at CXCR3 (unknown origin) assessed as inhibition of ligand-induced calcium flux measured upto 10 uM. Format: functional. Conditions: dose microM <=10.

The target in data set [18] is Voltage-gated inwardly rectifying potassium channel KCNH2 (Homo sapiens, UniProt Q12809). In words: Inhibition of human ERG by automated patch clamp method.
Data set [19] has as its target T5, C-C chemokine receptor type 6 (Homo sapiens) (UniProt P51684).
T5 sequence (whole entry): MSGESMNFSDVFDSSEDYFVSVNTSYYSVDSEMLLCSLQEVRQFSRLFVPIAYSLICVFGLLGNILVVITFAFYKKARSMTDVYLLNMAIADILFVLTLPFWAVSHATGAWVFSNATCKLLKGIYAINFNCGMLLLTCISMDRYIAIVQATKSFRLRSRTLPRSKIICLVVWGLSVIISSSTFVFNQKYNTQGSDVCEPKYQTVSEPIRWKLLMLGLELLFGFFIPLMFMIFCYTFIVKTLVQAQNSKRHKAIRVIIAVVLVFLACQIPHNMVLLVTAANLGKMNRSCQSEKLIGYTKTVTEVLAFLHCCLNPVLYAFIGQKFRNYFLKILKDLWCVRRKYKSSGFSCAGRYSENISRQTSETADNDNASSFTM
In words: Antagonist activity at CCR6 (unknown origin) assessed as inhibition of ligand-induced calcium flux measured upto 10 uM. It counts as functional. Particulars: dose microM <=10.

For data set [20], the target named is Cytochrome P450 2D6 (Homo sapiens, UniProt P10635). In words: Inhibition of human recombinant CYP2D6 expressed in insect cells using AMMC as substrate preincubated for 30 mins followed by NADPH regenerating system addition and measured after 45 mins by fluorescence based assay. It counts as ADME.
Data set [21] is described as follows: cells. Conditions: Homo sapiens, CCRF-CEM.
Description: Antagonist activity at muscarinic acetylcholine receptor in human CCRF-CEM cells assessed as inhibition of acetylcholine-induced calcium release preincubated for 25 mins followed by acetylcholine addition and monitered for 90 sec
Data set [22] is described as follows: Clearance in CD-1 mouse at 30 mg/kg, po or at 3 mg/kg, iv by UPLC-MS/MS analysis. Conditions: in vivo. Format: ADME, organism-based.
For data set [23], the target named is T6, C-C chemokine receptor type 7 (Homo sapiens) (UniProt P32248).
T6 sequence (whole entry): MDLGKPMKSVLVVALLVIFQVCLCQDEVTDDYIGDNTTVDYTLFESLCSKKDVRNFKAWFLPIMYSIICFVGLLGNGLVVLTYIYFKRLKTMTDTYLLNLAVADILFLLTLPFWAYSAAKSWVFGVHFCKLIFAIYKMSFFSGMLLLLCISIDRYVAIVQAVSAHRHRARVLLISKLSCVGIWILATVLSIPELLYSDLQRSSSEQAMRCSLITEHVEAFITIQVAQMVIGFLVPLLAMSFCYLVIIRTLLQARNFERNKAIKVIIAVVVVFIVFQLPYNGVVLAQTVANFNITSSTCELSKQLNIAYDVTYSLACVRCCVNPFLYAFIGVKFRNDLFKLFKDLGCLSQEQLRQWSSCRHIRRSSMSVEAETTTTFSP
In words: Antagonist activity at CCR7 (unknown origin) assessed as inhibition of ligand-induced calcium flux measured upto 10 uM. Conditions: dose microM <=10. It counts as functional.

C-C chemokine receptor type 5 (Homo sapiens), sequence (P51681 whole entry, looked up): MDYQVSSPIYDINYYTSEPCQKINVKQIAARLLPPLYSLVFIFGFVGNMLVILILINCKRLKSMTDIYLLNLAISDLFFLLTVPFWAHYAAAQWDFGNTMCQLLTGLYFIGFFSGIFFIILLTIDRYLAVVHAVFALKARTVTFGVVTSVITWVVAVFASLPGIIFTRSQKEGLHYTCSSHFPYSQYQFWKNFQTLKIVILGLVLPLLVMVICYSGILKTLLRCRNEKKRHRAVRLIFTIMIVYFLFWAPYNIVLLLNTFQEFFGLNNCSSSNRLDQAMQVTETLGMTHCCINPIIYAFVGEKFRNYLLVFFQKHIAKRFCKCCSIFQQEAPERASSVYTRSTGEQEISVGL
Cytochrome P450 3A4, sequence (P08684 whole entry): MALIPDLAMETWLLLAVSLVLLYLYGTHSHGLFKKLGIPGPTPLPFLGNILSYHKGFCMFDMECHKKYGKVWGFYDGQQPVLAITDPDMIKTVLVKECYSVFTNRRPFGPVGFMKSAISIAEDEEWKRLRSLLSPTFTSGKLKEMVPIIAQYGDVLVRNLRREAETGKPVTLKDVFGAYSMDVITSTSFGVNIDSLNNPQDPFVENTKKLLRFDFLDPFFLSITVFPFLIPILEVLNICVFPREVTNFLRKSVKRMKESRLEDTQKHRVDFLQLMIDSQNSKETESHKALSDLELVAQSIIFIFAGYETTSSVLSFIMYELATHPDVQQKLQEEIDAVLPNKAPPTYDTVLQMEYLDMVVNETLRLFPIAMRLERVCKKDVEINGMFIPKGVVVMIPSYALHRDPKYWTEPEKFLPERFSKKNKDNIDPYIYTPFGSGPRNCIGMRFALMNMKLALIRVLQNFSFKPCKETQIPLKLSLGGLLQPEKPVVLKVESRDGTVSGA
C-X-C chemokine receptor type 4, sequence (P61073 whole entry, the tested form may be a part): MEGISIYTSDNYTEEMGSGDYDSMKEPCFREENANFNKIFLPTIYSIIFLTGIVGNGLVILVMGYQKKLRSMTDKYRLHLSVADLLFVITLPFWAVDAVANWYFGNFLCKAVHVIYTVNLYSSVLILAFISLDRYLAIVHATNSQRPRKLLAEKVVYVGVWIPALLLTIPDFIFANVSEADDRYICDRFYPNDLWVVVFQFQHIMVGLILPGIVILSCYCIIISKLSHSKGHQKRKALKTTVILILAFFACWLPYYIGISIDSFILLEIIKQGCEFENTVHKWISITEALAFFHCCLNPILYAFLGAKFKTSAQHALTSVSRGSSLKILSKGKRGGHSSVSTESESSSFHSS
Voltage-gated inwardly rectifying potassium channel KCNH2, sequence (Q12809 whole entry): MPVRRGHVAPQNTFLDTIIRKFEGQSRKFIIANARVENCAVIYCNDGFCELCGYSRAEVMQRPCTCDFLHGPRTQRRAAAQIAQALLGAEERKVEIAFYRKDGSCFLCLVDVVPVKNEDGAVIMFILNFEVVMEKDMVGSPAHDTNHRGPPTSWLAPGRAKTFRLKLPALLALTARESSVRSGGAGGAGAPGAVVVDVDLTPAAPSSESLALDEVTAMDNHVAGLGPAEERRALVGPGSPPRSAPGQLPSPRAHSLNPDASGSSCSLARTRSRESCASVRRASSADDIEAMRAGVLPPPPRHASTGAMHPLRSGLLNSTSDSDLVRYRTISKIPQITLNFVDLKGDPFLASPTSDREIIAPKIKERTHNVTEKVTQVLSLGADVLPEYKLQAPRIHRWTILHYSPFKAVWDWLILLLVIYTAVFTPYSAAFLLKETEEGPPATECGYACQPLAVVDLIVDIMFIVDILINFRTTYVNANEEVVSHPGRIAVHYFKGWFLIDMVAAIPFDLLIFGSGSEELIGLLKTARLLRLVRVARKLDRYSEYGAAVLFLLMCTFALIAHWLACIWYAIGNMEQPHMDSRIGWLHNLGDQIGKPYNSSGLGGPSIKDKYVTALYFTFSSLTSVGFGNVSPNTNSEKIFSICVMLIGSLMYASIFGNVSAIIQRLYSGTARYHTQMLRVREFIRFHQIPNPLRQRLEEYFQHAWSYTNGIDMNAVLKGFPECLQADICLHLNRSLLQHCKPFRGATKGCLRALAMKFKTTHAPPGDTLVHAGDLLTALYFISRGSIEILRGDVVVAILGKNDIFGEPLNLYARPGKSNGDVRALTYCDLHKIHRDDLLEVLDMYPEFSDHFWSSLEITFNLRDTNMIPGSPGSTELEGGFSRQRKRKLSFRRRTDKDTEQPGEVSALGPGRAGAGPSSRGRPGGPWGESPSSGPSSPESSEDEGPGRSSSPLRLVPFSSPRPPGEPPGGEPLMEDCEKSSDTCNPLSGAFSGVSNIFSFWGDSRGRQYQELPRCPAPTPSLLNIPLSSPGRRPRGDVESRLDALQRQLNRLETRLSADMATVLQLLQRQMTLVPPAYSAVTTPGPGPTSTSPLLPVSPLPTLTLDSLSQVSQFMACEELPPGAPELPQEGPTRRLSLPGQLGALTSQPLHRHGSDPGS
Cytochrome P450 2D6, sequence (P10635 whole entry): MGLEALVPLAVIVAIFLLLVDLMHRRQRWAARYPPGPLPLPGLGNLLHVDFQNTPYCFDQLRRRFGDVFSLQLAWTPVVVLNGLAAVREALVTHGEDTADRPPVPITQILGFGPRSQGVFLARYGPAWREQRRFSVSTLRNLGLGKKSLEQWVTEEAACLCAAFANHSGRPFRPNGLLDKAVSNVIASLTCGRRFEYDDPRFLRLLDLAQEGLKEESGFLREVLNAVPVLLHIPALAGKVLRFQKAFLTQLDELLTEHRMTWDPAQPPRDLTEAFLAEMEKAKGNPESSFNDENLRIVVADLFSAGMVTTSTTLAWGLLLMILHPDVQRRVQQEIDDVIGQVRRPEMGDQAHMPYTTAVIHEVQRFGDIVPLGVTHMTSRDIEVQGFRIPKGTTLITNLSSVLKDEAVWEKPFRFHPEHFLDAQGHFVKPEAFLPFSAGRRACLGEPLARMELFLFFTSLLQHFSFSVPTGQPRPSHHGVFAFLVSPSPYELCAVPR

What is called Cmax is the maximum level reached in the sampled fluid or tissue. Usually bioavailability stands for dose-corrected exposure relative to a reference, in per cent. Higher therefore signals good availability. One may read the half-life as the time in which the quantity being followed falls by half. Read a low half-life as rapid decline. By pIC50 is commonly meant −log10 of the IC50, conventionally taken in molar units. In general, AUC(0-t) refers to exposure summed from dosing to a finite time, without extrapolation to infinity. Read a low AUC(0-t) as less exposure. The molecule `CN1CCN(Nc2cccc3c2CC(CN(C)[C@H]2CCCc4cccnc42)NC3)CC1` (single isomer, unassigned) came in with a Cmax in data set [1] of 791 ng/mL. This molecule also showed a bioavailability in data set [2] of 24%. For the same molecule, the results for the remaining at 10 min in data set [3], in data set [6] and in data set [13] were 21%, 73.6% and 85.8%, respectively. The result in data set [4], in data set [7], in data set [9], in [15], in data set [17] and in data set [19] was inactive. Further, the outcome in data set [23] was inactive. The same molecule gave a half-life in data set [5] of 3.5 h. For the same molecule, the pIC50 in [8] is below 4.70; in data set [10], 7.32; in data set [18], 5.17; in data set [20], below 4.70; in data set [21] it was below 4.78. Besides, the Papp at 4 h in [11] is 23.5 ×10⁻⁶ cm/s. The molecule also yielded a C8h at 8 h in [12] of 297 ng/mL. In data set [14], this molecule yielded a Vd of 9.35 L/kg. The molecule also gave an AUC(0-t) at 8 h in [16] of 4000 ng·h/mL. In [22], this molecule showed a clearance of 30.5 mL/min/kg.
